In ChEMBL document CHEMBL1144924, “Calculation of the binding affinity of beta-secretase inhibitors using the linear interaction energy method” (J Med Chem, 2003):

Biological target: Beta-secretase 1 (Homo sapiens, UniProt P56817)
Experiment: Binding affinity for human brain memapsin 2 beta-Secretase (BACE)

Sequence of Beta-secretase 1 (P56817 whole entry): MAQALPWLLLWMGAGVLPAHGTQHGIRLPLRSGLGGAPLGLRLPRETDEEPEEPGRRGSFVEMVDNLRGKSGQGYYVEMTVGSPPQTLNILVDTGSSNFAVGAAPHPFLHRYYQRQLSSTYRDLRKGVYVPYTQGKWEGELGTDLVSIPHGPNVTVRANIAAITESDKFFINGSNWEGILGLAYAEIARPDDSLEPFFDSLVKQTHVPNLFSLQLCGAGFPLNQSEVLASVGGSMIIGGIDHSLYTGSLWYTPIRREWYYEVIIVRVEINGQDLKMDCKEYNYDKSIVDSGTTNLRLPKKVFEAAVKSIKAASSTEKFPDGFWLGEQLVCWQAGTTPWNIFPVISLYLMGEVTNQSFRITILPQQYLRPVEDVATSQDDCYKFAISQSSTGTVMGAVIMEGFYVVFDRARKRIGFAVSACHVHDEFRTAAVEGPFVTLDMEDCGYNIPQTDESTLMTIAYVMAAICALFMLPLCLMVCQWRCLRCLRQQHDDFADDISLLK

| Compound | Ki |
| --- | --- |
| CSCCC(NC(=O)[C@@H](NC(=O)OC(C)(C)C)C(C)C)C(=O)N[C@@H](CC(C)C)C(O)CC(C)C(=O)NC(C(=O)NCc1ccccc1)C(C)C (some centres undefined) | 2.5 nM |
| CC(C)C[C@H](NC(=O)C(CS(C)(=O)=O)NC(=O)[C@@H](NC(=O)OC(C)(C)C)C(C)C)C(O)CC(C)C(=O)NC(C(=O)NCc1ccccc1)C(C)C (some centres undefined) | 9.4 nM |
| CC(C)C[C@H](NC(=O)[C@H](CS(C)(=O)=O)NC(=O)OC(C)(C)C)C(O)CC(C)C(=O)NC(C(=O)NCc1ccccc1)C(C)C (some centres undefined) | 1130 nM |
| CC(C)C[C@H](NC(=O)C(CC(N)=O)NC(=O)[C@@H](NC(=O)OC(C)(C)C)C(C)C)C(O)CC(C)C(=O)NC(C(=O)NCc1ccccc1)C(C)C (some centres undefined) | 5.9 nM |
| CC(C)C[C@H](NC(=O)[C@H](CC(N)=O)NC(=O)OC(C)(C)C)C(O)CC(C)C(=O)NC(C(=O)NCc1ccccc1)C(C)C (some centres undefined) | 3130 nM |
| CC(C)C[C@H](NC(=O)[C@H](CC(N)=O)NC(=O)OC(C)(C)C)C(O)CC(C)C(=O)NC(C)C(=O)NCc1ccccc1 (some centres undefined) | 22400 nM |
| CSCC(NC(=O)[C@@H](NC(=O)OC(C)(C)C)C(C)C)C(=O)N[C@@H](CC(C)C)C(O)CC(C)C(=O)NC(C(=O)NCc1ccccc1)C(C)C (some centres undefined) | 50.1 nM |
| CC(C)C[C@H](NC(=O)C(CC(N)=O)NC(=O)[C@@H](NC(=O)OC(C)(C)C)C(C)C)C(O)CC(C)C(=O)NC(C)C(=O)NCc1ccccc1 (some centres undefined) | 61.4 nM |
| CSCCC(NC(=O)OC(C)(C)C)C(=O)N[C@@H](CC(C)C)C(O)CC(C)C(=O)NC(C(=O)NCc1ccccc1)C(C)C (some centres undefined) | 5810 nM |
